{"source": "patent US20150212068A1", "about": "“Cholyl-L-Lysyl-Fluorescein Assay” (Novassay SA, priority 2012, published 2015)", "system": "serum/plasma proteins", "assay": "Effect of ANS on CLF recovery in the labelled-antibody format", "type": "in vitro ADME", "details": "human serum/plasma spiked with CLF, competitive immunoassay", "text": "This was successful in shifting the mean recovery to ˜100%. However, an unacceptably wide sample-to-sample variation was still observed (˜70-180%), therefore it was concluded that a blocker approach would be required, in which a chemical agent is used to displace the analyte from the binding proteins, so that it can be recovered effectively in the assay. […] ANS was therefore evaluated in more detail in this format.\nThe following study was executed to assess the recovery of CLF following spiking into human serum in assays, in the presence and absence of ANS.\n25 μl of standard (in buffer) was added to streptavidin coated wells, followed by 100 ul of 20 ng/ml biotin-fluorescein (one formulation containing 0.2% ANS, the other without) and 100 μl of anti-fluorescein HRP (100 ng/ml). After 30 minutes incubation (RT/static) the wells were washed and 100 μl of SureBlue Reserve TMB substrate added. After a further 10 minutes incubation, 100 μl of 1M HCl was added and the colour intensity measured at 450 nm.\n3 plasma samples (Lithium heparin) were spiked with CLF at […]; these concentrations (the expected values) are noted in the relevant sample IDs.", "note": "“Also recorded” adds a separate entry of the source.", "data": [{"smiles": "O=S(=O)(O)c1cccc2cccc(Nc3ccccc3)c12", "note": "[ANS, 8-anilino-1-naphthalene sulfonic acid]", "values": [{"measurement": "displacement of CLF from serum/plasma proteins by blocker", "result": "effective in displacing CLF bound to serum/plasma proteins; also recorded: able to displace CLF from serum proteins"}]}]}
